Measurements reported in US6525059B1, “Substituted pyrazoles as p38 kinase inhibitors” (G. D. Searle & Company, priority 1998, dated 2003).

Columns and labels:
[1] = target: T1, human p38 kinase alpha (Homo sapiens, UniProt Q16539); experiment: p38 kinase in vitro assay, phosphorylation of biotinylated PHAS-I with gamma 32P-ATP; format: biochemical; settings: p38α in vitro, PHAS-I assay procedure; read-out: p38^1 IC50
T1 construct: The coding region of the human p38a cDNA was obtained by PCR-amplification from RNA isolated from the human monocyte cell line THP.1; GST (N); made in house; host or cells: E. coli DH10B
How it was run: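 Radiometric filter-capture read-out: streptavidin plates trap biotin-PHAS-I labelled by activated (MKK6) human p38α from γ-32P-ATP. Buffer 25 mM HEPES pH 7.5, 10 mM magnesium acetate, 50 μM cold ATP; reactions 1 h or overnight at 30 °C; inhibitors 10-fold dilutions 100 to 0.001 μM, triplicates, 1% DMSO.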

[2] = tested on: TNF-α; experiment: LPS stimulation of TNF production by U937 cells; format: cell-based, human; settings: Homo sapiens, U-937, LPS-stimulated U937 cells; read-out: U937 IC50
How it was run: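 PMA-differentiated human U937 cells (20 ng/ml PMA, 24 h, then 24-48 h rest) at 2 million cells/ml, 0.1% DMSO final, stimulated with E. coli LPS (100 ng/ml final) for 4 h at 37° C. TNF-α in medium measured by ELISA; IC50 in μM.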

[3] = tested on: TNF alpha; experiment: Mouse model of LPS-induced TNF alpha production; format: in vivo; settings: mouse, oral, 1h before LPS, 30 mpk; read-out: mLPS 1h, 30 mpk percent inhibition
Method: TNF alpha was induced in 10-12 week old BALB/c female mice by tail vein injection with 100 ng lipopolysaccharide (from S. Typhosa) in 0.2 ml saline. One hour later mice were bled from the retroorbital sinus and TNF concentrations in serum from clotted blood were quantified by ELISA.
Efficacy was determined at each time point as percent inhibition of serum TNF levels relative to LPS injected mice that received vehicle only
wherein in the dose is milligram per kilogram (mpk) administered by oral gavage and the predose time indicates the number of hours before LPS challenge when the compound is administered.

[4] = target: T2, human GST-p38 kinase alpha (Homo sapiens, UniProt Q16539); experiment: p38 kinase in vitro assay, second format, phosphorylation of EGFRP with 33P-ATP; format: biochemical; settings: Table 10, 10% DMSO; @ 1.0 hour; read-out: p38α Kinase Assay IC50
T2 construct: The coding region of the human p38a cDNA was obtained by PCR-amplification from RNA isolated from the human monocyte cell line THP.1; made in house; host or cells: E. coli DH10B
How it was run: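 Activated human GST-p38α (pre-activated with GST-MKK6, 1 h, 30 °C) phosphorylates EGFR 21-mer peptide (200 μM) with 50 μM ATP plus γ-33P-ATP, pH 7.5, 60 min at room temperature. Unreacted ATP removed by AG 1×8 resin; supernatant scintillation-counted.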

[5] = tested on: human TNF; experiment: TNF inhibition: human whole blood assay; format: cell-based; settings: Homo sapiens, Table 10, human whole blood, LPS; read-out: TNF Inhibition-Human Whole Blood Assay
[6] = tested on: TNF-α; experiment: Rat assay: LPS-challenged rats, serum TNF-α by ELISA; format: in vivo; settings: Rattus norvegicus, po; for inhibition in vivo at 5 mg/kg: Table 10, dose 5.0 mg/kg; for inhibition in vivo at 5 mg/kg / inhibition in vivo at 1 mg/kg: read-out: Rat LPS Assay % Inhibition; for inhibition in vivo at 20 mg/kg: Table 10, dose 20.0 mg/kg; for inhibition in vivo at 1 mg/kg: Table 10, dose 1.0 mg/kg

T2 sequence (Q16539 whole entry): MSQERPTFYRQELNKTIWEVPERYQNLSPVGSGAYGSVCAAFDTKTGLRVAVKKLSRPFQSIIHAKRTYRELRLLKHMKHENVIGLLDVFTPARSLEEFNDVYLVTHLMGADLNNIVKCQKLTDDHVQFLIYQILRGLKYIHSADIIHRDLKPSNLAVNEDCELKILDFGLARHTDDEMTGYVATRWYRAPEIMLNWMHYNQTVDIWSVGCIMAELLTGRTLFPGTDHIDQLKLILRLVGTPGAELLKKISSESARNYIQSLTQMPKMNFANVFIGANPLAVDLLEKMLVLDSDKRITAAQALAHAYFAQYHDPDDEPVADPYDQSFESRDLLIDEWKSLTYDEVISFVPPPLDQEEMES
T1 sequence (Q16539 whole entry): as above

SMILES | IC50 [1] [nM] | IC50 [2] [nM] | inhibition in vivo at 30 mg/kg [3] [%] | IC50 [4] [nM] | IC50 [5] [nM] | inhibition in vivo at 5 mg/kg [6] [%] | inhibition in vivo at 20 mg/kg [6] [%] | melting point [°C] | inhibition in vivo at 1 mg/kg [6] [%]
Nc1[nH]nc(-c2ccc(Cl)cc2)c1-c1ccncc1 [Example A-427, 5-amino-3-(4-chlorophenyl)-4-(pyridin-4-yl)pyrazole] |  |  |  | 190 | 24100 | 56 | 77 | > 300 | 
CSc1[nH]nc(-c2ccc(Cl)cc2)c1-c1ccncc1 [Example A-435] |  |  |  | 350 | > 25000 | 0 | 14 | 250.2 | 10
CN1CCN(c2[nH]nc(-c3ccc(Br)cc3)c2-c2ccncc2)CC1 [Example A-439] |  |  |  | 150 | 5630 | 58 | 93 | 270.2 to 270.7 | 
CC(C)(C)OC(=O)N1CCC(Oc2[nH]nc(-c3ccc(Cl)cc3)c2-c2ccncc2)CC1 [Example A-441] |  |  |  | 1210 | > 25000 | 14 | 62 | 230.1 to 231.8 | 
CN1CCC(Oc2[nH]nc(-c3ccc(Cl)cc3)c2-c2ccncc2)CC1 [Example A-448, 3-(4-chlorophenyl)-5-[(1-methylpiperidin-4-yl)-oxy]-4-pyridin-4-yl-1H-pyrazole] |  |  |  | 84 | 120 | 73 | 97 | 255.9 to 256.8 | 
N#CCSc1[nH]nc(-c2ccc(Cl)cc2)c1-c1ccncc1 [Example A-456] |  |  |  | 120 | 980 | 48 | 53 | 230 to 230.5 | 36

Second part, led by results:

IC50 [1] [nM] | IC50 [2] [nM] | SMILES | inhibition in vivo at 30 mg/kg [3] [%] | IC50 [4] [nM] | IC50 [5] [nM] | inhibition in vivo at 5 mg/kg [6] [%] | inhibition in vivo at 20 mg/kg [6] [%] | melting point [°C] | inhibition in vivo at 1 mg/kg [6] [%]
160 | 198 | OCCn1cc(-c2ccncc2)c(-c2ccc(F)cc2)n1 [Example A-210, 3-(4-fluorophenyl)-4-(4-pyridinyl)-1H-pyrazole-1-ethanol] | 93 |  |  |  |  |  | 
697 | 349 | Cn1nc(-c2ccc(F)cc2)c(-c2ccncc2)c1C(O)c1ccccc1 (stereo not drawn) [Example A-217, 3-(4-fluorophenyl)-1-methyl -α-phenyl-4-(4-pyridinyl)-1H-pyrazole-5-methanol] | 9 |  |  |  |  |  | 
 | 462 | Cn1cc(-c2ccncc2)c(-c2cccc(F)c2)n1 [Example A-229, 4-[3-(3-fluorophenyl)-1-methyl-1H-pyrazol-4-yl]pyridine] | 91 |  |  |  |  |  | 
 | 259 | CN(C)CCNc1cc(-c2c[nH]nc2-c2ccc(F)cc2)ccn1 [Example A-264, N′-[4-[3-(4-fluorophenyl)-1H-pyrazol-4-yl]-2-pyridinyl]-N,N-dimethyl-1,2-ethanediamine] | 61 |  |  |  |  |  | 
 | 539 | Fc1ccc(-c2n[nH]cc2-c2ccnc(NCCN3CCOCC3)c2)cc1 [Example A-266, N-[4-[3-(4-fluorophenyl)-1H-pyrazol-4-yl)-2-pyridinyl]-4-morpholineethanamine] | 0 |  |  |  |  |  | 
 | > 10000 | Fc1ccc(-c2nn(CCN3CCOCC3)cc2-c2ccnc(F)c2)cc1 [Example A-269, 4-[2-[3-(4-fluorophenyl)-4-(2-fluoro-4-pyridinyl)-1H-pyrazol-1-yl]ethyl]morpholine] | 51 |  |  |  |  |  | 
73 | 583 | OCCn1cc(-c2ccnc(CCc3ccc(F)cc3)c2)c(-c2ccc(F)cc2)n1 [Example A-272, 3-(4-fluorophenyl)-4-[2-[2-(4-fluorophenyl)ethyl]-4-pyridinyl]-1H-pyrazole-1-ethanol] | -8 |  |  |  |  |  | 
6980 | > 10000 | CN(C)CCn1cc(-c2ccnc(N(C)C)c2)c(-c2ccc(F)cc2)n1 [Example A-273, 4-[1-[2-(dimethylamino)ethyl]-3-(4-fluorophenyl)-1H-pyrazol-4-yl]-N,N-dimethyl-2-pyridinamine] | 43 |  |  |  |  |  | 
